The subject of the assay is primary rat microglia. The assay is described as follows: Inhibition of microglia activation (Aβ peptide stimulation, MTS reduction). Type of assay: cell-based. The following applies: Aβ-activated primary rat microglia, MTS reduction on day 7, compound added on day 5; read-out: IC50 in the Microglia Inhibition Test. As to the method: For in vitro production of Aβ-activated microglia, primary rat microglia are incubated with synthetic Aβ peptide:
To simulate Aβ deposits, synthetic Aβ peptide is dried on 96-hole tissue culture plates. A peptide stock solution of 2 mg/ml of H2O 1:50 in H2O, is diluted in this. To coat the 96-hole plates, 30 μL of this dilute peptide solution/hole is used and dried overnight at room temperature.
Primary rat microglia are harvested from mixed glia cultures, which were obtained from P3 rat brains. For the production of mixed glia cultures, the brains are removed from 3-day-old rats and meninges are removed therefrom. The isolation of cells is achieved by trypsinization (0.25% trypsin solution, 15 minutes 37° C.)). After undigested tissue fragments are separated with the aid of a 40 µm nylon mesh, the isolated cells are centrifuged off (800 rpm/10 minutes). The cell pellet is resuspended in culture medium and moved into 100 ml tissue culture flasks (1 brain/tissue culture flask). […]
To quantify the microglia reactivity, the metabolic activity is measured on cultivation day 7 via the reduction of MTS (3-(4,5-dimethylthiazol-2-yl)-5-(3carboxymethoxyphenyl)-2-(sulfophenyl)-2H-tetrazolium), Owen's reagent, Baltrop, J. A. et al., Bioorg. & Med. Chem. Lett., 1, 6111 (1991)). […]
For orientation: Tetrazolium dyes change colour on reduction, which living cells bring about.

Usually IC50 stands for the concentration that inhibits the measured activity by half. For `COC(=O)CCCCCOc1ccc2nc(-c3ccc(OC)cc3)n(CCCN(C)C(C)=O)c2c1` [6-[(5-(Methoxycarbonyl)pentyl)oxy]-2-(4-methoxy-phenyl)-1-[3-(N-methyl-N-(methylcarbonyl)amino)propyl]-benzimidazole], the IC50 came out at 0.39 µM. The value for `COCCCn1c(-c2ccccc2)nc2ccc(OCCCCCC(=O)OC)cc21` [6-[(5-(Methoxycarbonyl)pentyl)oxy]-1-(3-methoxy-n-propyl)-2-phenyl-benzimidazole] was 0.65 µM.

For the origin of these results see patent US6855714B2, “1-alkyl-2-aryl-benzimidazole derivatives, their use for the production of pharmaceutical agents as well as pharmaceutical preparations that contain these derivatives” (Schering Aktiengesellschaft, priority 2001, dated 2005).
